Laboratory results taken from patent US20260150874A1, “HUMAN MILK OLIGOSACCHARIDES” (SOCIETE DES PRODUITS NESTLE S.A., priority 2021, published 2026).
“Also recorded” adds a separate entry of the source.

How the values were obtained:
visual network = experiment: Association between human milk HMOs and brain functional network connection strength (rsfMRI), visual network; type: in vivo, typically developing infants (human); details: A-tetra+ group; infants 0-20 months; human milk HMO level; quantile regression of 25th, 50th, 75th percentiles of CS; across all quantiles
Experimental: (§1) In this study, we leveraged the UNC/UMN Baby Connectome Project (BCP) published in Neuroimage 2019: Vol 185: 891-905, aiming to longitudinally characterize early brain development, where typically developing children from 0-5 years of age were enrolled, longitudinal resting functional MR imaging (rsfMRI) was administered at each visit. The BCP study was further supplemented by collecting breast milk samples from the mothers whose children were breast-fed at the time of study visit, to allow the determination of potential associations between HMOs and early brain functional development using rsfMRI.
(§2) 153 rsfMRI scans from 91 typically developing infants (0-20 months old) were obtained. Human milk (HM) samples were obtained from the mothers of the participants at each imaging visit and analyzed for HMOs. Brain functional network connection strengths (CS), which have been implicated to reflect brain functional maturation during early brain development, were obtained for the visual, default mode (DMN), sensorimotor, and auditory networks. Age effects for CS and HMOs were removed. Multivariate quantile regression of 25th, 50th, and 75th percentiles of CS with mixed effect was used to examine associations between HMOs and CS for all infants, and stratified by infants who received HM with detectable and undetectable A-tetra (A-tetra+and A-tetra−). […]

auditory network = experiment: Association between human milk HMOs and brain functional network connection strength (rsfMRI), auditory network; type: in vivo, typically developing infants (human); details: A-tetra+ group; infants 0-20 months; human milk HMO level; quantile regression of 25th, 50th, 75th percentiles of CS; across all quantiles
Experimental: as §1, §2

CC(=O)N[C@H]1[C@H]([C@H](O)[C@H](O)CO)O[C@@](OC[C@H]2O[C@@H](O[C@H]3[C@H](O)[C@@H](O)[C@H](O)O[C@@H]3CO)[C@H](O)[C@@H](O)[C@H]2O)(C(=O)O)C[C@@H]1O [6′-SL, 6′-sialyllactose]
association between 6′-SL and visual function (vision resting functional networks, connection strength) (visual network): positive associations; also recorded: significant positive association
association between 6′-SL and auditory function (auditory resting functional networks, connection strength) (auditory network): positive associations; also recorded: significant positive association
